Patent US6831199B1, “Pyrimidine compounds and derivatives thereof” (G. D. Searle & Co., priority 1995, dated 2004)
Counter-ions that a name gives are not always drawn.

Assays:
[1] = biological target: T1, Human vitronectin receptor (αvβ3) (Homo sapiens, UniProt P05106+P06756); assay: Vitronectin adhesion assay (solid phase receptor assay, competition with biotinylated vitronectin); type: binding; settings: read-out: AvB3 IC50
T1 construct: Human vitronectin receptor (αvβ3) was purified from human placenta; from tissue; host or cells: human placenta
Method: VITRONECTIN ADHESION ASSAY
Assay buffer, OPD substrate tablets, and RIA grade BSA were obtained from Sigma (St. Louis, Mo.). Anti-biotin antibody was obtained from Calbiochem (La Jolla, Calif.). Linbro microtiter plates were obtained from Flow Labs (McLean, Va.). ADP reagent was obtained from Sigma (St. Louis, Mo.).
(§1) Solid Phase Receptor Assays
(§2) The purified human vitronectin receptor (αvβ3) was diluted from stock solutions to 1.0 μg/mL in Tris-buffered saline containing 1.0 mM Ca^++, Mg^++, and Mn^++, pH 7.4 (TBS^+++). The diluted receptor was immediately transferred to Linbro microtiter plates at 100 μL/well (100 ng receptor/well). The plates were sealed and incubated overnight at 4° C. to allow the receptor to bind to the wells. All remaining steps were at room temperature. The assay plates were emptied and 200 μL of 1% RIA grade BSA in TBS^+++(TBS^+++/BSA) were added to block exposed plastic surfaces. Following a 2 hour incubation, the assay plates were washed with TBS^+++ using a 96 well plate washer. Logarithmic serial dilution of the test compound and controls were made starting at a stock concentration of 2 mM and using 2 nM biotinylated vitronectin in TBS^+++/BSA as the diluent. This premixing of labeled ligand with test (or control) ligand, and subsequent transfer of 50 μL aliquots to the assay plate was carried out with a CETUS Propette robot; the final concentration of the labeled ligand was 1 nM and the highest concentration of test compound was 1.0×10^−4 M. The competition occurred for two hours after which all wells were washed with a plate washer as before. Affinity purified horseradish peroxidase labeled goat anti-biotin antibody was diluted 1:3000 in TBS^+++/BSA and 125 μL were added to each well. After 30 minutes, the plates were washed and incubated with OPD/H2O2 substrate in 100 mM/L Citrate buffer, pH 5.0. The plate was read with a microtiter plate reader at a wavelength of 450 nm and when the maximum-binding control wells reached an absorbance of about 1.0, the final A450 were recorded for analysis. The data were analyzed using a macro written for use with the EXCEL™ spreadsheet program. The mean, standard deviation, and % CV were determined for duplicate concentrations. The mean A450 values were normalized to the mean of four maximum-binding controls (no competitor added)(B-MAX). The normalized values were subjected to a four parameter curve fit algorithm [Rodbard et al., Int.

[2] = biological target: T2, Human fibrinogen receptor (αIIbβ3) (Homo sapiens, UniProt P05106+P08514); assay: Purified IIb/IIIa receptor assay (solid phase receptor assay, competition with biotinylated vitronectin); type: binding; settings: read-out: IIb/IIIa IC50
T2 construct: Human fibrinogen receptor (αIIbβ3) was purified from outdated platelets; from tissue; host or cells: outdated human platelets
Method: PURIFIED IIb/IIIa RECEPTOR ASSAY
Human fibrinogen receptor (αIIbβ3) was purified from outdated platelets. […] Biotinylated human vitronectin was prepared by coupling NHS-biotin from Pierce Chemical Company (Rockford, Ill.) to purified vitronectin as previously described. […] Anti-biotin antibody was obtained from Calbiochem (La Jolla, Calif.). Linbro microtiter plates were obtained from Flow Labs (McLean, Va.). ADP reagent was obtained from Sigma (St. Louis, Mo.).
as §1
as §2, with “human fibrinogen” for “human vitronectin”, “receptor (αIIbβ3)” for “receptor (αvβ3)”, “in TBS^+++ (TBS^+++/BSA)” for “in TBS^+++(TBS^+++/BSA)”, “with […]” for “with OPD/H2O2”, “mM/L citrate” for “mM/L Citrate”, “fit algorithm, [Robard” for “fit algorithm [Rodbard”

Structure (SMILES)	IC50 [1] [nM]	IC50 [2] [nM]
CCOC(=O)CC(NC(=O)CNC(=O)c1cccc(NC(=N)N)c1)c1ccc2c(c1)OCO2 (racemic) [Example 5, (±)ethyl β-[[2-[[[3-[(aminoiminomethyl)amino]phenyl]carbonyl]amino]acetyl]amino]-1,3-benzodioxole-5-propanoate, trifluoroacetate salt]	227	3150
N=C(N)Nc1cccc(C(=O)NC2CCN(CCC(=O)O)C2=O)c1 (racemic) [Example 42, (±)3-[[[3-[(aminoiminomethyl)amino]phenyl]carbonyl]amino]-2-oxopyrrolidine-1-propanoic acid, trifluoroacetate salt]	124	9800
CCOC(=O)CC(NC(=O)CNC(=O)c1cccc(NC(=N)N)c1)c1ccoc1 (racemic) [Example 51, (±)ethyl β-[[2-[[[3-[(aminoiminomethyl)amino]phenyl]carbonyl]amino]acetyl]amino]furan-3-propanoate, trifluoroacetate salt]	9730	> 100000
COC(=O)CC(NC(=O)CNC(=O)c1cccc(NC(=N)N)c1)c1ccsc1 (racemic) [Example 57, (±)methyl β-[[2-[[[3-[(aminoiminomethyl)amino]phenyl]carbonyl]amino]acetyl]amino]thiophene-3-propanoate, trifluoroacetate salt]	1340	15300
N=C(N)NCc1cccc(C(=O)NCC(=O)NC(CC(=O)O)c2cccnc2)c1 (racemic) [Example 85, (±)β-[[2-[[[3-[[(aminoiminomethyl)amino]methyl]phenyl]carbonyl]amino]acetyl]amino]pyridine-3-propanoic acid, bis(trifluoroacetate)salt]	6.65	8.07
N=C(N)Nc1cccc(C(=O)NCC(=O)NC(CC(=O)O)C(=O)NCCO)c1 (racemic) [Example 89, (±)3-[[2-[[[3-[(aminoiminomethyl)amino]phenyl]carbonyl]amino]acetyl]amino]-4-[(2-hydroxyethyl)amino]-4-oxobutanoic acid, trifluoroacetate salt]	1240	9830
CCOC(=O)CC(NC(=O)CNC(=O)c1cccc(NC(=N)N)c1)c1cnc2ccccc2c1 (racemic) [Example 98, (±)ethyl β-[[2-[[[3-[(aminoiminomethyl)amino]phenyl]carbonyl]amino]acetyl]amino]-quinoline-3-propanoate, bis(trifluoroacetate)salt]	146	500
N=C(N)Nc1cccc(C(=O)NCC(=O)NC(CC(=O)O)c2ccc(Cl)c(Cl)c2)c1 (racemic) [Example 175, (±)β-[[2-[[[3-[(aminoiminomethyl)amino]phenyl]carbonyl]amino]acetyl]amino]-3,4-dichlorobenzenepropanoic acid, trifluoroacetate salt]	2.12	205
O=C(O)CC(NC(=O)CNC(=O)c1cccc(NC2=NCCN2)c1)c1cc(C(F)(F)F)cc(C(F)(F)F)c1 (racemic) [Example 179, (±)β-[[2-[[[3-[(4,5-dihydro-1H-imidazol-2-yl)amino]phenyl]carbonyl]amino]acetyl]-amino]-3,5-bis(trifluoromethyl)benzenepropanoic acid, trifluoroacetate salt]	2.72	927
Cc1ccc(C)c(C(CC(=O)O)NC(=O)CNC(=O)c2cccc(NC(=N)N)c2)c1 (racemic) [Example 181, (±)β-[[2-[[[3-[(aminoiminomethyl)amino]phenyl]carbonyl]amino]acetyl]amino]-2,5-dimethylbenzenepropanoic acid, trifluoroacetate salt]	132	22800
N=C(N)Nc1cccc(C(=O)NCC(=O)NC(CC(=O)O)c2cccc(Cl)c2)c1 (racemic) [Example 183, (±)β-[[2-[[[3-[(aminoiminomethyl)amino]phenyl]carbonyl]amino]acetyl]amino]-3-chlorobenzenepropanoic acid, trifluoroacetate salt]	1.58	258
N=C(N)Nc1cccc(C(=O)NCC(=O)NC(CC(=O)O)c2cccc(Br)c2)c1 (racemic) [Example 185, (±)β-[[2-[[[3-[(aminoiminomethyl)amino]phenyl]carbonyl]amino]acetyl]amino]-3-bromobenzenepropanoic acid, trifluoroacetate salt]	1.47	166
N=C(N)Nc1cccc(C(=O)NCC(=O)NC(CC(=O)O)c2ccc(Br)cc2)c1 (racemic) [Example 187, (±)β-[[2-[[[3-[(aminoiminomethyl)amino]phenyl]carbonylamino]acetyl]amino]-4-bromobenzenepropanoic acid, trifluoroacetate salt]	1.31	264
O=C(O)CC(NC(=O)CNC(=O)c1cccc(NC2=NCCCCC2)c1)c1cc(Cl)cc(Cl)c1 (racemic) [Example 189, (±)β-[[2-[[[3-[(3,4,5,6-tetrahydro-2H-azepin-7-yl)amino]phenyl]carbonyl]amino]acetyl]amino]-3,5-dichlorobenzenepropanoic acid, trifluoroacetate salt]	4.03	1980
COc1cc(OC)cc(C(CC(=O)O)NC(=O)CNC(=O)c2cccc(NC(=N)N)c2)c1 (racemic) [Example 195, (±)β-[[2-[[[3-[(aminoiminomethyl)amino]phenyl]carbonyl]amino]acetyl]amino]-3,5-dimethoxybenzenepropanoic acid, trifluoroacetate salt]	1.09	98
CNC(=NC#N)Nc1cccc(C(=O)NCC(=O)NC(CC(=O)O)c2cc(Cl)cc(Cl)c2)c1 (racemic) [Example 198, (±)3,5-dichloro-β-[[2-[[[3-[(cyanoimino)(methylamino)methyl]amino]phenyl]carbonyl]amino]acetyl]amino]benzenepropanoic acid]	114	37800
CNC(=NC(N)=O)Nc1cccc(C(=O)NCC(=O)NC(CC(=O)O)c2cc(Cl)cc(Cl)c2)c1 (racemic) [Example 201, (±)β-[[2-[[[3-[[[(aminocarbonyl)imino)methylamino)methyl]amino]phenyl]carbonyl]amino]acetyl]amino]-3,5-dichlorobenzenepropanoic acid]	58.1	10800
O=C(O)CC(NC(=O)CNC(=O)c1cccc(NC2=NCCC2)c1)c1cc(Cl)cc(Cl)c1 (racemic) [Example 203, (±)β-[[2-[[[3-[(3,4-dihydro-2H-pyrrol-5-yl)amino]phenyl]carbonyl]amino]acetyl]amino]-3,5-dichlorobenzenepropanoic acid, trifluoroacetate salt]	3.56	650
